Assay results taken from patent publication US11752159B2, “Compositions and methods for suppressing or reducing systemic immune response in a subject” (THE TRUSTEES OF THE UNIVERSITY OF PENNSYLVANIA, priority 2015, dated 2023).

Legend:
B6 mice = test: Experimental allergic encephalitis (EAE) mouse model of multiple sclerosis, topical MC903; format: in vivo; details: topical daily starting 1 day before disease induction, compared to EtOH-treated mice
Description: FIG. 7 illustrates the clinical score difference among B6 mice topically treated with EtOH or MC903 daily for 2 weeks. The B6 mice were injected with myelin oligodendrocyte glycoprotein (MOG) peptide emulsified in complete Freund's adjuvant (CFA), then received Pertussis toxin intraperitoneally at the time of immunization and 48 h later. The mice were treated with topical EtOH or MC903 daily for 2 weeks. Mice were clinically scored on a five-point scale for signs of disease on the indicated days. N=8 mice/group. P=0.06 by two-way Analysis of variance (ANOVA). To test whether topical MC903 treatment was effective at treating multiple sclerosis (MS), the effect of MC903 in reducing clinical severity of a mouse model of MS known as experimental allergic encephalitis (EAE). Mice were topically treated daily with MC903 starting 1 day before disease induction. […] Thus, topical MC903 treatment might also be beneficial in the treatment of multiple sclerosis.

[1] = tested on: regulatory T cells (Tregs); test: Kinetics of systemic Treg levels after topical MC903 treatment; format: in vivo, mice; details: Day 15, after cessation of topical treatment
Text: FIG. 3A-3C comprise graphs illustrating data derived from topical treatment of B6 mice with EtOH or MC903 (2 nmol) until […]. Mice were taken at different time points post treatment initiation as indicated. FIG. 3A is a graph illustrating the percentage of Tregs out of CD4+ T cells in the spleen and blood of B6 mice over 18 days. FIG. 3B illustrates the absolute numbers of Tregs in the spleen of B6 mice over 18 days. FIG. 3C illustrates the serum thymic stromal lymphopoietin (TSLP) level change over time in B6 mice over 18 days.
Next, the kinetics of the systemic increase in Treg levels was investigated after topical MC903 treatment (treatment stopped on Day 7). The absolute number and the fraction of Tregs increased to a peak between days 6 and 9 and gradually declined thereafter in the spleen and the blood of MC903-treated mice (FIGS. 3A-3B). Circulating TSLP levels peaked at Day 6 and fell abruptly by Day 9 (FIG. 3C).

[2] = Toxicity (morbidity and mortality) of topical vitamin D3 analogs in mice; format: in vivo; details: mouse, in vivo
Description: VDR stimulation of keratinocytes led to TSLP production, which in certain embodiments caused increase in Treg numbers. The effects of two vitamin D3 analogs (22-Oxacalcitriol, also known as 22-OXA, and EB1089) on TSLP production and Treg numbers were evaluated. Similarly to MC903, 22-OXA and EB1089 were applied to the ear skin bilaterally at a dose of 2 nmol/ear dissolved in ethanol. After 5 days of treatment, the mice were bled and serum TSLP levels were measured. […] To avoid the toxic effect, the dose of 22-OXA and EB1089 was lowered to a point where morbidity and mortality of mice was not observed (0.4 nmol/ear for 22-OXA; 0.04 nmol/ear for EB1089). At this dose, no increase in TSLP level was detected in 22-OXA-treated mice (FIG. 9B).

NOD mice = test: NOD mouse model of type I diabetes, topical MC903; format: in vivo
Text: FIGS. 5A-5B comprise graphs illustrating data derived from topical treatment of NOD mice with EtOH or MC903 (2 nmol) 3 times/week every other week at Week 5 of age; treatment was stopped at Week 15 of age. FIG. 5A illustrates the percentage of Tregs out of CD4+ T cells in the blood of NOD mice before (Day 0) and after treatment (Day 8). […] The % of mice with diabetes is plotted over the age of the mice (N=7 mice/group-EtOH; N=8 mice/group-MC903).
To test whether topical treatment with MC903 would lead to amerilioration of inflammatory disorders, it was tested whether topical application of MC903 protected a mouse against type I diabetes (T1D), using a non-obese diabetes (NOD) mouse model of diabetes. NOD mice were treated 3 times a week with MC903 on alternating ears every week.

Tregs = test: Dosing schedule of chronic topical MC903: circulating Tregs and atopic dermatitis; format: in vivo, mice
Text: FIG. 11 comprises a graph illustrating data derived from topically treating mice with MC903 (2 nmol on one ear) 3 times/week every other week or with MC903 (2 nmol on one ear) 3 times/week every week (alternating ears every week) for 8 weeks. The % of Tregs out of CD4+ T cells in the blood before (baseline) and after treatment (Weeks 1, 4, 6, and 8) is illustrated. N=3 mice/group. * p<0.05 by Student t-test.
FIG. 12 comprises a graph illustrating data derived from topically treating mice with EtOH or MC903 (2 nmol) 3 times/week every other week for 10 weeks. The % of Tregs out of CD4+ T cells in the blood before (Day 0) and after treatment (Day 8 and Week 10) is illustrated. N=7 mice/group.
To test whether chronic MC903 treatment results in sustained increases in Treg numbers, mice were continuously treated with MC903 for more than 2 weeks.
To avoid this local toxic effect of MC903, alternating ears were treated every week (right ear for 1 week, followed by the left ear for 1 week, then back to the right ear for 1 week, and so on). […] Without wishing to be limited by any theory, the increase in Tregs appeared to be become refractory to the chronic MC903 treatment. Thus, the protocol was modified so that a 1-week rest period (pulse treatment) was given between weekly treatments.

C57BL6 mice = test: High fat diet (HFD) type II diabetes mouse model, topical MC903; format: in vivo; details: topical three times a week every other week, vs ethanol
Description: FIG. 13 comprises a graph illustrating the finding that topical administration of MC903 improves overnight fasting glucose levels in mice fed with 12 weeks of high fat diet (HFD).
Topical administration of MC903 was evaluated in a model of high fat diet (HFD) type II diabetes mice. Male C57BL6 mice, which were 8 weeks at the onset of the study, were used. The mice were fed a high fat diet (45 kcal % of fat; research diet No. D12451, OpenSource Diets) for 20 weeks. During this period, the mice were topically administered ethanol or MC903 three times a week (Monday, Wednesday and Friday), every other week, for the duration of the experiment.

[3] = 3 days (every other day)/week every other week

## C=C1/C(=C\C=C2/CCC[C@]3(C)[C@@H]([C@H](C)/C=C/[C@@H](O)C4CC4)CC[C@@H]23)C[C@@H](O)C[C@@H]1O [MC903, 26,27-cyclo-22-ene-1α,24S-dihydroxyvitamin D3]
B6 mice
  clinical severity of EAE: attenuated clinical severity
[1]
  Treg levels versus EtOH-treated group by Day 15: no differences
[2]
  systemic toxicity: without any apparent systemic toxicity
NOD mice; Day 8 post-treatment, compared to vehicle
  circulating Treg levels: increased
NOD mice; topical 3 times a week on alternating ears, 8 weeks
  atopic dermatitis under treatment protocol: little to no evidence of atopic dermatitis
NOD mice; topical MC903 compared to vehicle
  incidence of T1D (two consecutive blood glucose readings >250 mg/dl): significantly attenuated
Tregs; [3]
  atopic inflammation, pulse treatment: atopic inflammation was avoided
  circulating Treg numbers, pulse treatment: increased over a 10 week period
Tregs; alternating ears every week, Day 8
  Tregs at Day 8, alternating ear protocol: increased systemically
Tregs; alternating ears every week, no rest week
  circulating Tregs at Week 4 of treatment and beyond, alternating ear protocol: not increased
Tregs; alternating ears treated every week
  atopic dermatitis with alternating ear protocol: minimal atopic dermatitis
Tregs; mouse, in vivo
  local toxicity with chronic once/day treatment of more than 1 week: development of atopic dermatitis of the ear skin
C57BL6 mice
  overnight fasting glucose levels: improved overnight fasting glucose levels
